Test results reported in ChEMBL document CHEMBL2424610, “Design, synthesis, and evaluation of 4-(substituted)phenyl-2-thioxo-3,4-dihydro-1H-chromino[4,3-d]pyrimidin-5-one and 4-(substituted)phenyl-3,4-dihydro-1H-chromino[4,3-d]pyrimidine-2,5-dione analogs as antitubercular agents” (Med Chem Res, 2013).

Key:
Vero = assay: Cytotoxicity against african green monkey Vero cells; type: cell-based; conditions: Chlorocebus sabaeus
[1] = test system: Mycobacterium tuberculosis; assay: Antitubercular activity against Mycobacterium tuberculosis H37Rv ATCC 27294 assessed as growth inhibition at 128 uM after 4 days by microplate Alamar blue assay; type: functional; conditions: H37Rv ATCC 27294, 96 h, read-out: GI
[2] = test system: Mycobacterium tuberculosis; assay: Antitubercular activity against Mycobacterium tuberculosis H37Rv ATCC 27294 assessed as growth inhibition at 128 uM by luminescence-based low oxygen-recovery assay; type: functional; conditions: read-out: GI

Which results are given for `COc1ccc(C2NC(=O)Nc3c2c(=O)oc2ccccc32)cc1OC` (stereo not drawn)?
IC50 (Vero): > 128 µM; inhibition of growth at 128 µM [1]: 0%; inhibition of growth at 128 µM [2]: 0%

With `COc1ccc(C2NC(=O)Nc3c2c(=O)oc2ccc(C)cc32)cc1` (stereo not drawn) as the molecule, how does the IC50 (Vero) read?
The IC50 was 101 µM.

What about the inhibition of growth at 128 µM [1] of the same molecule?
The inhibition of growth at 128 µM was 58%.

What about the inhibition of growth at 128 µM [2] of the same molecule?
The inhibition of growth at 128 µM was 62%.

Which IC50 (Vero) does the source give for `COc1ccc(C2NC(=O)Nc3c2c(=O)oc2ccc(C)cc32)cc1OC` (stereo not drawn) here?
Its IC50 is over 128 µM.

And the inhibition of growth at 128 µM [1]?
Its inhibition of growth at 128 µM is 55%.

What about the inhibition of growth at 128 µM [2] of the same molecule?
The inhibition of growth at 128 µM was 35%.

What does the source list for `COc1cc(C2NC(=O)Nc3c2c(=O)oc2ccccc32)ccc1O` (stereo not drawn)?
IC50 (Vero): > 128 µM; inhibition of growth at 128 µM [1]: 37%; inhibition of growth at 128 µM [2]: 1%

How did the IC50 (Vero) turn out when `O=C1Nc2c(c(=O)oc3ccccc23)C(c2ccccc2O)N1` (stereo not drawn) was run?
Its IC50 is 122 µM.

What about the inhibition of growth at 128 µM [1] of the same molecule?
The inhibition of growth at 128 µM was 45%.

What about the inhibition of growth at 128 µM [2] of the same molecule?
The inhibition of growth at 128 µM was 37%.

What does the source list for `O=C1Nc2c(c(=O)oc3ccccc23)C(c2cccc(Br)c2)N1` (stereo not drawn)?
IC50 (Vero): 106 µM; inhibition of growth at 128 µM [1]: 7%; inhibition of growth at 128 µM [2]: 15%

With `O=c1oc2ccccc2c2c1C(c1ccccc1)NC(=S)N2` (stereo not drawn) as the molecule, how does the IC50 (Vero) read?
The IC50 was over 128 µM.

What about the inhibition of growth at 128 µM [1] of the same molecule?
The inhibition of growth at 128 µM was 10%.

And the inhibition of growth at 128 µM [2]?
The inhibition of growth at 128 µM was 20%.

How did the IC50 (Vero) turn out when `COc1ccc(C2NC(=S)Nc3c2c(=O)oc2ccccc32)cc1` (stereo not drawn) was run?
Its IC50 is over 128 µM.

What about the inhibition of growth at 128 µM [1] of the same molecule?
The inhibition of growth at 128 µM was 0%.

What about the inhibition of growth at 128 µM [2] of the same molecule?
Its inhibition of growth at 128 µM is 0%.

Which IC50 (Vero) does the source give for `COc1ccc(C2NC(=S)Nc3c2c(=O)oc2ccccc32)cc1OC` (stereo not drawn) here?
The IC50 was over 128 µM.

And the inhibition of growth at 128 µM [1]?
Its inhibition of growth at 128 µM is 0%.

And the inhibition of growth at 128 µM [2]?
The inhibition of growth at 128 µM was 0%.

For `COc1ccc(C2NC(=S)Nc3c2c(=O)oc2ccc(C)cc32)cc1` (stereo not drawn), which IC50 (Vero) is on record?
The IC50 was over 128 µM.

And the inhibition of growth at 128 µM [1]?
Its inhibition of growth at 128 µM is 0%.

What about the inhibition of growth at 128 µM [2] of the same molecule?
Its inhibition of growth at 128 µM is 1%.

Which results are given for `COc1ccc(C2NC(=S)Nc3c2c(=O)oc2ccc(C)cc32)cc1OC` (stereo not drawn)?
IC50 (Vero): > 128 µM; inhibition of growth at 128 µM [1]: 9%; inhibition of growth at 128 µM [2]: 14%

With `COc1cc(C2NC(=S)Nc3c2c(=O)oc2ccccc32)ccc1O` (stereo not drawn) as the molecule, how does the IC50 (Vero) read?
Its IC50 is over 128 µM.

What about the inhibition of growth at 128 µM [1] of the same molecule?
The inhibition of growth at 128 µM was 0%.

And the inhibition of growth at 128 µM [2]?
Its inhibition of growth at 128 µM is 0%.

With `O=c1oc2ccccc2c2c1C(c1cccc(Br)c1)NC(=S)N2` (stereo not drawn) as the molecule, how does the IC50 (Vero) read?
The IC50 was 47.4 µM.

And the inhibition of growth at 128 µM [1]?
The inhibition of growth at 128 µM was 12%.

What about the inhibition of growth at 128 µM [2] of the same molecule?
Its inhibition of growth at 128 µM is 59%.

For `Cc1ccc2oc(=O)c3c(c2c1)NC(=S)NC3c1cccc(Br)c1` (stereo not drawn), which IC50 (Vero) is on record?
Its IC50 is 47.6 µM.

What about the inhibition of growth at 128 µM [1] of the same molecule?
Its inhibition of growth at 128 µM is 32%.

And the inhibition of growth at 128 µM [2]?
The inhibition of growth at 128 µM was 61%.

Which results are given for `O=C1Nc2c(c(=O)oc3ccccc23)C(c2ccccc2)N1` (stereo not drawn)?
IC50 (Vero): 84.7 µM; inhibition of growth at 128 µM [1]: 0%; inhibition of growth at 128 µM [2]: 17%

What does the source list for `COc1ccc(C2NC(=O)Nc3c2c(=O)oc2ccccc32)cc1` (stereo not drawn)?
IC50 (Vero): 119 µM; inhibition of growth at 128 µM [1]: 8%; inhibition of growth at 128 µM [2]: 4%
